# Measurements from the supplement of paper PMC10307832.
# Tests used:
# Test in all cases: relative viability (nuclei count vs DMSO), 5 days (fraction); higher = more cells survive
# [1] = compound: Cn1cnc2c(F)c(Nc3ccc(Br)cc3Cl)c(C(=O)NOCCO)cc21 [Selumetinib] + CC(=O)Nc1cccc(-n2c(=O)n(C3CC3)c(=O)c3c(Nc4ccc(I)cc4F)n(C)c(=O)c(C)c32)c1 [Trametinib] (partner 0.02 µM)
# In short: (§1)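 Relative viability is defined as nuclei in treated wells over nuclei in vehicle wells. Duplicate plates were run and medians reported. Lung cancer cell lines in 1536-well plates were dosed by pin tool one day after seeding, with one drug or with a fixed anchor-drug dose plus five library-drug doses (not always all listed) in √10 steps, and nuclei were counted after 5 days.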
# [2] = compound: CC1(C)CCC(CN2CCN(c3ccc(C(=O)NS(=O)(=O)c4ccc(NCC5CCOCC5)c([N+](=O)[O-])c4)c(Oc4cnc5[nH]ccc5c4)c3)CC2)=C(c2ccc(Cl)cc2)C1 [Venetoclax] + C[C@@H](Oc1cc(-c2cnn(C3CCNCC3)c2)cnc1N)c1c(Cl)ccc(F)c1Cl [Crizotinib] (partner 1 µM)
# In short: as §1
# [3] = compound: Cn1cnc2c(F)c(Nc3ccc(Br)cc3Cl)c(C(=O)NOCCO)cc21 [Selumetinib] + O=C(CCCCCCC(=O)Nc1ccccc1)NO [Vorinostat] (partner 1 µM)
# In short: as §1
# [4] = compound: Cn1cnc2c(F)c(Nc3ccc(Br)cc3Cl)c(C(=O)NOCCO)cc21 [Selumetinib] + CC(=O)c1c(C)c2cnc(Nc3ccc(N4CCNCC4)cn3)nc2n(C2CCCC2)c1=O [Palbociclib] (partner 0.5 µM)
# In short: as §1
cell line,measurement,setting,value
UMC-11,relative viability,[1]; first compound 0.02 µM,0.562
same,relative viability,[1]; first compound 0.06325 µM,0.703
same,relative viability,[1]; first compound 0.2 µM,0.879
same,relative viability,[1]; first compound 0.6325 µM,0.812
same,relative viability,[2]; first compound 0.01 µM,0.625
same,relative viability,[2]; first compound 0.03162 µM,0.622
same,relative viability,[2]; first compound 0.1 µM,0.653
same,relative viability,[2]; first compound 0.3162 µM,0.636
same,relative viability,[2]; first compound 1 µM,0.614
same,relative viability,[3]; first compound 0.02 µM,0.387
same,relative viability,[3]; first compound 0.06325 µM,0.285
same,relative viability,[3]; first compound 0.2 µM,0.348
same,relative viability,[3]; first compound 0.6325 µM,0.368
same,relative viability,[4]; first compound 0.02 µM,0.309
same,relative viability,[4]; first compound 0.06325 µM,0.37
same,relative viability,[4]; first compound 0.2 µM,0.306
same,relative viability,[4]; first compound 0.6325 µM,0.34
